Experimental data taken from patent publication US4657898A, “N^6 -substituted adenosines and method of use” (Warner-Lambert Company, priority 1985, dated 1987).

Test: Mouse Activity and Screen Test Procedure (MAST): screen test failure (ST)
Settings: for MAST ST LAD: lowest dose at which an A rating is achieved, screen test, i.p., mouse; for Inhibition of screen test failure: percent of mice falling off the screen
Description: Nine unfasted Swiss-Webster male mice weighing 20-30 g are equally divided into three groups for each drug dose to be tested. That is, data for each dose level was generated by three separate groups of three mice each.
A minimum of three dose levels (10, 30, and 100 mg/kg) are tested for each drug. Treatments are administered intraperitoneally one hour prior to testing. All dosages are calculated as parent compound and given in volumes of 10 ml/kg. Compounds are dissolved or suspended in 0.2% Methocel. Control animals are injected with Methocel.
Testing: A two part testing procedure is started one hour postinjection. First, the screen test (ST) is performed (see Pharmac. Biochem. Behav. 6, 351-353, 1977). Briefly this test consists of placing mice on individual wire screens which are then rotated 180 degrees at the start of a 60 second observation period. The number of mice falling off the inverted screen is recorded.
Data: The data obtained from the screen test are expressed as percent of mice falling off the screen. Data derived from locomotor activity of drug treated mice are compared to the activity of vehicle treated animals and are expressed as percent inhibition of spontaneous locomotion. All percentages reported for inhibition of locomotion (LI) are based upon data accumulated for one hour. Both phases of testing are graded: A=60-100%; C=31-59%; and N=0-30%. An overall dose rating is obtained by the following criteria:
LAD refers to the lowest dose at which an A rating is achieved. […] The compounds are identified in the Examples.

SMILES | MAST ST LAD | further results
OC[C@H]1O[C@@H](n2cnc3c(NCC(c4ccccc4)c4ccc(F)cc4)ncnc32)[C@H](O)[C@@H]1O (stereo partly drawn) [Example 10, N^6-(2-(4-Fluorophenyl)-2-phenylethyl)adenosine] | > 100 mg/kg | 
OC[C@H]1O[C@@H](n2cnc3c(NCC(c4ccc(F)cc4)c4ccc(F)cc4)ncnc32)[C@H](O)[C@@H]1O [Example 13, N^6-(2,2-Di-(4-fluorophenyl)ethyl)adenosine] | > 100 mg/kg | 
OC[C@H]1O[C@@H](n2cnc3c(NCC(c4ccccc4)c4ccc(Cl)cc4)ncnc32)[C@H](O)[C@@H]1O (stereo partly drawn) [Example 15, N^6-(2-(4-Chlorophenyl)-2-phenylethyl)adenosine] | > 100 mg/kg | 
Nc1nc(NCC(c2ccccc2)c2ccc(Cl)cc2)c2ncn([C@@H]3O[C@H](CO)[C@@H](O)[C@H]3O)c2n1 (stereo partly drawn) [Example 16] | > 100 mg/kg | 
CC(CNc1ncnc2c1ncn2[C@@H]1O[C@H](CO)[C@@H](O)[C@H]1O)(c1ccccc1)c1ccccc1 [Example 8, N^6-(2,2-Diphenylpropyl)adenosine] | > 100 mg/kg | 
OC[C@H]1O[C@@H](n2cnc3c(NCCC(c4ccccc4)c4ccccc4)ncnc32)[C@H](O)[C@@H]1O [Example 2, N^6-(3,3-Diphenylpropyl)adenosine] | > 100 mg/kg | Inhibition of screen test failure (10 mg/kg i.p.): 0%; Inhibition of screen test failure (30 mg/kg i.p.): 0%; Inhibition of screen test failure (100 mg/kg i.p.): 0%
COC(=O)C(CNc1ncnc2c1ncn2[C@@H]1O[C@H](CO)[C@@H](O)[C@H]1O)(c1ccccc1)c1ccccc1 [Example 24, N^6-(2-Carbomethoxy-2,2-diphenylethyl)adenosine] | > 30 mg/kg | 
OC[C@H]1O[C@@H](n2cnc3c(NCC(O)(c4ccccc4)c4ccccc4)ncnc32)[C@H](O)[C@@H]1O [Example 22, N^6-(2,2-Diphenyl-2-hydroxyethyl)adenosine] | 100 mg/kg | 
OC[C@H]1O[C@@H](n2cnc3c(NCC(c4ccccc4)c4cccc(Cl)c4)ncnc32)[C@H](O)[C@@H]1O (stereo partly drawn) [Example 14, N^6-(2-(3-Chlorophenyl)-2-phenylethyl)adenosine] | > 100 mg/kg | 
CC1(C)O[C@@H]2[C@H](O1)[C@@H](CO)O[C@H]2n1cnc2c(NCC(c3ccccc3)c3ccccc3)ncnc21 [Example 29, 2',3'-O-Isopropylidene-N^6-(2,2-diphenylethyl) adenosine] | > 100 mg/kg | 
O=P(O)(O)OC[C@H]1O[C@@H](n2cnc3c(NCC(c4ccccc4)c4ccccc4)ncnc32)[C@H](O)[C@@H]1O [Example 28, N^6-(2,2-Diphenylethyl)adenosine-5'-phosphate] | > 30 mg/kg | 
Nc1nc(NCC(c2ccc(Cl)cc2)c2ccc(Cl)cc2)c2ncn([C@@H]3O[C@H](CO)[C@@H](O)[C@H]3O)c2n1 [Example 18] | > 30 mg/kg | 
Nc1nc(NCC(c2ccccc2)c2ccccc2)c2ncn([C@@H]3O[C@H](CO)[C@@H](O)[C@H]3O)c2n1 [Example 4, N^6-(2,2-Diphenylethyl)-2-aminoadenosine] | > 100 mg/kg | Inhibition of screen test failure (10 mg/kg i.p.): 0%; Inhibition of screen test failure (30 mg/kg i.p.): 11%; Inhibition of screen test failure (100 mg/kg i.p.): 22%
CC(=O)OC[C@H]1O[C@@H](n2cnc3c(NCC(c4ccccc4)c4ccccc4)nc(Cl)nc32)[C@H](OC(C)=O)[C@@H]1OC(C)=O [Example 27, 2',3',5'-Tri-O-acetyl-N^6-(2,2-diphenylethyl)-2-chloroadenosine] | > 100 mg/kg | 
OC[C@H]1O[C@@H](n2cnc3c(NCC(c4ccccc4)c4ccccc4)nc(Cl)nc32)[C@H](O)[C@@H]1O [Example 3, N^6-(2,2-Diphenylethyl)-2-chloroadenosine] | > 100 mg/kg | Inhibition of screen test failure (10 mg/kg i.p.): 0%; Inhibition of screen test failure (30 mg/kg i.p.): 11%; Inhibition of screen test failure (100 mg/kg i.p.): 44%
Nc1nc(NCC(O)(c2ccccc2)c2ccccc2)c2ncn([C@@H]3O[C@H](CO)[C@@H](O)[C@H]3O)c2n1 [Example 23, N^6-(2,2-Diphenyl-2-hydroxyethyl)-2-aminoadenosine] | > 100 mg/kg | 
OC[C@H]1O[C@@H](n2cnc3c(NCC(c4ccccc4)c4ccc(F)cc4)nc(Cl)nc32)[C@H](O)[C@@H]1O (stereo partly drawn) [Example 11, N^6-(2-(4-Fluorophenyl)-2-phenylethyl)-2-chloroadenosine] | > 100 mg/kg | 
COc1ccc(C(CNc2ncnc3c2ncn3[C@@H]2O[C@H](CO)[C@@H](O)[C@H]2O)c2ccccc2)cc1 (stereo partly drawn) [Example 19, N^6-(2-(4-Methoxyphenyl)-2-phenylethyl)adenosine] | 30 mg/kg | 
Nc1nc(NCC(c2ccccc2)c2ccc(F)cc2)c2ncn([C@@H]3O[C@H](CO)[C@@H](O)[C@H]3O)c2n1 (stereo partly drawn) [Example 12, N^6-(2-(4-Fluorophenyl)-2-phenylethyl)-2-amino adenosine] | > 100 mg/kg | 
Cc1cccc(C(CNc2ncnc3c2ncn3[C@@H]2O[C@H](CO)[C@@H](O)[C@H]2O)c2ccccc2)c1 (stereo partly drawn) [Example 9, N^6-(2-(3-Methylphenyl)-2-phenylethyl)adenosine] | 100 mg/kg | 
CC(CNc1nc(N)nc2c1ncn2[C@@H]1O[C@H](CO)[C@@H](O)[C@H]1O)(c1ccccc1)c1ccccc1 [Example 21, N^6-(2,2-Diphenylpropyl)-2-aminoadenosine] | > 100 mg/kg | 
OC[C@H]1O[C@@H](n2cnc3c(NCCCCC(c4ccccc4)c4ccccc4)ncnc32)[C@H](O)[C@@H]1O [Example 7, N^6-(5,5-Diphenylpentyl)adenosine] | > 100 mg/kg | 
OC[C@H]1O[C@@H](n2cnc3c(NC(c4ccccc4)c4ccccc4)ncnc32)[C@H](O)[C@@H]1O [Example 5, N^6 -Diphenylmethyladenosine] | > 100 mg/kg | 
CC(=O)OC[C@H]1O[C@@H](n2cnc3c(NCC(c4ccccc4)c4ccccc4)ncnc32)[C@H](OC(C)=O)[C@@H]1OC(C)=O [Example 25, 2',3',5'-Tri-O-acetyl-N^6-(2,2-diphenylethyl)adenosine] | > 100 mg/kg | 
OC[C@H]1O[C@@H](n2cnc3c(NCC(c4ccc(Cl)cc4)c4ccc(Cl)cc4)ncnc32)[C@H](O)[C@@H]1O [Example 17, N^6-(2,2-Di(4-chlorophenyl)ethyl)adenosine] | > 100 mg/kg | 
OC[C@H]1O[C@@H](n2cnc3c(NCCCC(c4ccccc4)c4ccccc4)ncnc32)[C@H](O)[C@@H]1O [Example 6, N^6-(4,4-Diphenylbutyl)adenosine] | > 100 mg/kg | 
O=C(OC[C@H]1O[C@@H](n2cnc3c(NCC(c4ccccc4)c4ccccc4)ncnc32)[C@H](OC(=O)c2ccccc2)[C@@H]1OC(=O)c1ccccc1)c1ccccc1 [Example 26, 2',3',5'-Tri-O-benzoyl-N^6-(2,2-diphenylethyl) adenosine] | > 100 mg/kg | 
